According to PubChem BioAssay AID1963842 (Molecular Pharmacology Branch, DTP, NCI, 2024):

Tested on: 677734-321-R-J1-PDC complex spheroid viability
Experiment: Anticancer human tumor 677734-321-R-J1-PDC patient-derived soft tissue sarcoma cell line growth inhibition [POLQ]
Conditions: for IC50: curve of first compound; for viability, T/C: stronger effect = lower value
Summary of the method: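 Three-cell-type spheroids modelling solid tumor plus stroma served as the readout system; POL inhibitors were tested individually and in combination, concentration ranges set by clinical Cmax where known.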

[1] = second compound 0.0316 µM, first compound 0.0316 µM
[2] = second compound 0.0316 µM, first compound 0.1 µM
[3] = second compound 0.0316 µM, first compound 0.316 µM
[4] = second compound 0.0316 µM, first compound 1 µM
[5] = second compound 0.1 µM, first compound 0.0316 µM
[6] = second compound 0.1 µM, first compound 0.1 µM
[7] = second compound 0.1 µM, first compound 0.316 µM
[8] = second compound 0.1 µM, first compound 1 µM
[9] = second compound 0.316 µM, first compound 0.0316 µM
[10] = second compound 0.316 µM, first compound 0.1 µM
[11] = second compound 0.316 µM, first compound 0.316 µM
[12] = second compound 0.316 µM, first compound 1 µM
[13] = second compound 1 µM, first compound 0.0316 µM
[14] = second compound 1 µM, first compound 0.1 µM
[15] = second compound 1 µM, first compound 0.316 µM
[16] = second compound 1 µM, first compound 1 µM
[17] = second compound 3.16 µM, first compound 0.0316 µM
[18] = second compound 3.16 µM, first compound 0.1 µM
[19] = second compound 3.16 µM, first compound 0.316 µM
[20] = second compound 3.16 µM, first compound 1 µM
[21] = second compound 10 µM, first compound 0.0316 µM
[22] = second compound 10 µM, first compound 0.1 µM
[23] = second compound 10 µM, first compound 0.316 µM
[24] = second compound 10 µM, first compound 1 µM
[25] = second compound 0.0316 µM, first compound 3.16 µM
[26] = second compound 0.0316 µM, first compound 10 µM
[27] = second compound 0.1 µM, first compound 3.16 µM
[28] = second compound 0.1 µM, first compound 10 µM
[29] = second compound 0.316 µM, first compound 3.16 µM
[30] = second compound 0.316 µM, first compound 10 µM
[31] = second compound 1 µM, first compound 3.16 µM
[32] = second compound 1 µM, first compound 10 µM
[33] = second compound 3.16 µM, first compound 3.16 µM
[34] = second compound 3.16 µM, first compound 10 µM
[35] = second compound 10 µM, first compound 3.16 µM
[36] = second compound 10 µM, first compound 10 µM
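Also: spheroids exposed to compounds for one week.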
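For viability, T/C in this document: 100% = vehicle DMSO treated spheroids.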

## C=CCn1c(=O)c2cnc(Nc3ccc(N4CCN(C)CC4)cc3)nc2n1-c1cccc(C(C)(C)O)n1 + Nc1ccc(C#CCN(C(=O)Cc2ncc(C(F)(F)F)cc2C(F)(F)F)c2ccc(F)cc2)nn1
Second compound 0.0316 µM
  IC50: 0.727 µM
Second compound 0.1 µM
  IC50: 0.682 µM
Second compound 0.316 µM
  IC50: 0.664 µM
Second compound 1 µM
  IC50: 0.644 µM
Second compound 3.16 µM
  IC50: 0.496 µM
Second compound 10 µM
  IC50: 0.805 µM
Second compound 0.0316 µM, first compound 0.00316 µM
  viability, T/C: 114%
Second compound 0.0316 µM, first compound 0.01 µM
  viability, T/C: 107%
[1]
  viability, T/C: 102%
[2]
  viability, T/C: 102%
[3]
  viability, T/C: 84.1%
[4]
  viability, T/C: 36.7%
Second compound 0.1 µM, first compound 0.00316 µM
  viability, T/C: 107%
Second compound 0.1 µM, first compound 0.01 µM
  viability, T/C: 111%
[5]
  viability, T/C: 122%
[6]
  viability, T/C: 97.2%
[7]
  viability, T/C: 80.8%
[8]
  viability, T/C: 35.1%
Second compound 0.316 µM, first compound 0.00316 µM
  viability, T/C: 119%
Second compound 0.316 µM, first compound 0.01 µM
  viability, T/C: 102%
[9]
  viability, T/C: 110%
[10]
  viability, T/C: 104%
[11]
  viability, T/C: 81.1%
[12]
  viability, T/C: 32.5%
Second compound 1 µM, first compound 0.00316 µM
  viability, T/C: 106%
Second compound 1 µM, first compound 0.01 µM
  viability, T/C: 102%
[13]
  viability, T/C: 112%
[14]
  viability, T/C: 93.2%
[15]
  viability, T/C: 85.4%
[16]
  viability, T/C: 29.3%
Second compound 3.16 µM, first compound 0.00316 µM
  viability, T/C: 114%
Second compound 3.16 µM, first compound 0.01 µM
  viability, T/C: 96.3%
[17]
  viability, T/C: 103%
[18]
  viability, T/C: 104%
[19]
  viability, T/C: 59%
[20]
  viability, T/C: 35.9%
Second compound 10 µM, first compound 0.00316 µM
  viability, T/C: 116%
Second compound 10 µM, first compound 0.01 µM
  viability, T/C: 113%
[21]
  viability, T/C: 108%
[22]
  viability, T/C: 97.1%
[23]
  viability, T/C: 74.6%
[24]
  viability, T/C: 44.2%

## CCCS(=O)(=O)Nc1ccc(F)c(C(=O)c2c[nH]c3ncc(-c4ccc(Cl)cc4)cc23)c1F + Nc1ccc(C#CCN(C(=O)Cc2ncc(C(F)(F)F)cc2C(F)(F)F)c2ccc(F)cc2)nn1
Second compound 0.0316 µM
  IC50: 5.07 µM
Second compound 0.1 µM
  IC50: 5.35 µM
Second compound 0.316 µM
  IC50: 5.46 µM
Second compound 1 µM
  IC50: 4.5 µM
Second compound 3.16 µM
  IC50: 4.29 µM
Second compound 10 µM
  IC50: 4.7 µM
[1]
  viability, T/C: 96.6%
[2]
  viability, T/C: 106%
[3]
  viability, T/C: 97.2%
[4]
  viability, T/C: 104%
[25]
  viability, T/C: 80%
[26]
  viability, T/C: 7%
[5]
  viability, T/C: 107%
[6]
  viability, T/C: 109%
[7]
  viability, T/C: 87.5%
[8]
  viability, T/C: 98.9%
[27]
  viability, T/C: 86.8%
[28]
  viability, T/C: 6.32%
[9]
  viability, T/C: 99%
[10]
  viability, T/C: 101%
[11]
  viability, T/C: 102%
[12]
  viability, T/C: 108%
[29]
  viability, T/C: 87.9%
[30]
  viability, T/C: 7.94%
[13]
  viability, T/C: 107%
[14]
  viability, T/C: 103%
[15]
  viability, T/C: 107%
[16]
  viability, T/C: 98.6%
[31]
  viability, T/C: 68%
[32]
  viability, T/C: 9.46%
[17]
  viability, T/C: 121%
[18]
  viability, T/C: 110%
[19]
  viability, T/C: 102%
[20]
  viability, T/C: 96.6%
[33]
  viability, T/C: 67.2%
[34]
  viability, T/C: 5.17%
[21]
  viability, T/C: 96.8%
[22]
  viability, T/C: 105%
[23]
  viability, T/C: 96.1%
[24]
  viability, T/C: 113%
[35]
  viability, T/C: 73.2%
[36]
  viability, T/C: 5.45%

## CNCc1ccc(-c2[nH]c3cc(F)cc4c3c2CCNC4=O)cc1 + Nc1ccc(C#CCN(C(=O)Cc2ncc(C(F)(F)F)cc2C(F)(F)F)c2ccc(F)cc2)nn1
Second compound 0.0316 µM
  IC50: > 10 µM
Second compound 0.1 µM
  IC50: > 10 µM
Second compound 0.316 µM
  IC50: > 10 µM
Second compound 1 µM
  IC50: > 10 µM
Second compound 3.16 µM
  IC50: > 10 µM
Second compound 10 µM
  IC50: > 10 µM
[1]
  viability, T/C: 90.2%
[2]
  viability, T/C: 99.6%
[3]
  viability, T/C: 100%
[4]
  viability, T/C: 81%
[25]
  viability, T/C: 101%
[26]
  viability, T/C: 81.6%
[5]
  viability, T/C: 113%
[6]
  viability, T/C: 106%
[7]
  viability, T/C: 107%
[8]
  viability, T/C: 100%
[27]
  viability, T/C: 106%
[28]
  viability, T/C: 61.8%
[9]
  viability, T/C: 100%
[10]
  viability, T/C: 109%
[11]
  viability, T/C: 106%
[12]
  viability, T/C: 127%
[29]
  viability, T/C: 94.5%
[30]
  viability, T/C: 80.1%
[13]
  viability, T/C: 118%
[14]
  viability, T/C: 86.4%
[15]
  viability, T/C: 106%
[16]
  viability, T/C: 91.8%
[31]
  viability, T/C: 88.7%
[32]
  viability, T/C: 67.4%
[17]
  viability, T/C: 97.7%
[18]
  viability, T/C: 109%
[19]
  viability, T/C: 109%
[20]
  viability, T/C: 113%
[33]
  viability, T/C: 101%
[34]
  viability, T/C: 63.5%
[21]
  viability, T/C: 97.4%
[22]
  viability, T/C: 99.3%
[23]
  viability, T/C: 89.2%
[24]
  viability, T/C: 114%
[35]
  viability, T/C: 107%
[36]
  viability, T/C: 63.6%
